Assay results published in patent US5804592A, “Method for improving disturbed behavior and elevating mood in humans” (Unimed Pharmaceuticals, Inc., priority 1997, dated 1998).
Entries after “also recorded” stand apart in the source; their conditions may differ.

What was measured:
[1] = AIDS patients, after dronabinol treatment; Gorter 1991, Beal 1995; cited from earlier work
[2] = Use of as needed (PRN) psychoactive medication during the study; assay type: in vivo, human; conditions: during dronabinol treatment; placebo administration 9.7
From the text: Eleven of the patients were on a psychoactive medication before the beginning of dronabinol study and were maintained on the same medication during the study period. Four patients were receiving regular doses of neuroleptics (perphenazine, thiothixene, haloperidol or thioridazine), 4 patients were receiving regular doses of benzodiazepienes (3 lorazepam and one alprazolam), and 8 patients were receiving regular doses of antidepressants. The antidepressants included sertraline (8 patients), trazodone (4 patients) and desipramine (1 patient). Three patients were on both sertraline and trazodone, and one patient was switched from trazodone to doxepin. Antidepressant treatment was initiated at least 4 weeks before the start of the study and the mean duration of antidepressant treatment before study initiation was 7 months. Eleven patients had orders for psychoactive medications as needed (PRN). These included lorazepam in 4 patients and alprazolam, trazodone, doxepin, haloperidol, perphenazine and thioridazine in one patient each. […]
A double blind placebo-controlled crossover design was used with each period of study lasting six weeks. […] Possible side effects were determined every week by asking the primary caregivers if the patient experienced any of a list of possible symptoms. […]

[3] = four compartment model; Agurell et al. 1986; cited from earlier work
[4] = Double blind placebo-controlled crossover study: Cohen-Mansfield Agitation Inventory (CMAI), disturbed behavior; assay type: in vivo, human
From the text: (§1) Each patient in the this example was diagnosed with "probable" DAT by a neurologist according to DSM III-R and NINCDS-ARDDA criteria. These generally accepted criteria include deficits in two or more areas of cognition, progressive worsening of memory and other cognitive functions, no disturbances of consciousness, and absence of systemic disorders or other brain disease that in and of themselves could account for the progressive deficits in memory and cognition. (McKhann et al., Neurology, 34: 939-944 (1984). Each patient received physical examination and laboratory examination including complete blood count with differential, liver function tests, thyroid function tests including TSH, iron binding capacity, BUN, creatinine, and electrolytes.
Eleven of the patients were on a psychoactive medication before the beginning of dronabinol study and were maintained on the same medication during the study period. Four patients were receiving regular doses of neuroleptics (perphenazine, thiothixene, haloperidol or thioridazine), 4 patients were receiving regular doses of benzodiazepienes (3 lorazepam and one alprazolam), and 8 patients were receiving regular doses of antidepressants. The antidepressants included sertraline (8 patients), trazodone (4 patients) and desipramine (1 patient). Three patients were on both sertraline and trazodone, and one patient was switched from trazodone to doxepin. Antidepressant treatment was initiated at least 4 weeks before the start of the study and the mean duration of antidepressant treatment before study initiation was 7 months. Eleven patients had orders for psychoactive medications as needed (PRN). These included lorazepam in 4 patients and alprazolam, trazodone, doxepin, haloperidol, perphenazine and thioridazine in one patient each. The patients received these medications very rarely, on the average 9.7 doses/6 weeks during the placebo administration and 7.2 doses/6 weeks during dronabinol treatment.
(§2) A double blind placebo-controlled crossover design was used with each period of study lasting six weeks. Dronabinol or placebo was administered on a fixed dose schedule, 2.5 mg capsule or identically looking placebo capsule every morning and noon. Subjects were randomly assigned to placebo first or dronabinol first groups. Possible side effects were determined every week by asking the primary caregivers if the patient experienced any of a list of possible symptoms. A list of these symptoms observed in twelve patients over seventy weeks is identified in Table 2 below.
(§3) Baseline measurements were taken the week prior to randomization and treatment initiation. Behavior measures were obtained weekly for the 12 week duration of the trial. Repeated measures on these variables were therefore available for six weeks on dronabinol and six weeks on placebo for each subject.
The disturbed behavior was measured by the Cohen-Mansfield Agitation Inventory (CMAI)(Cohen-Mansfieldet al., J. Gerontol. Med. Sci., 44: M77-84 (1989)) which is a widely used instrument with good psychometric properties. Twenty nine items of this inventory are rated by frequency (from 1=never to 7=constantly or almost constantly) and by disruptiveness (from 1=not at all to 5=extremely). For each observation period, the total score was calculated by multiplying the frequency and disruptiveness of individual items and adding the products. The CMAI items observed are identified in Table 3 below.
(§4) Statistical analysis was performed using Statistix 4.1 (Analytic Software). Repeated measures ANOVA for the 12 weeks of the study was done to test for effects of order, time and treatment on-study variables.

[5] = cited from earlier work
[6] = Possible side effects determined every week by asking the primary caregivers (Table 2); assay type: in vivo, human
From the text: as §1, §2

[7] = Double blind placebo-controlled crossover study: Lawton Observed Affect Scale - Past (negative and positive affect); assay type: in vivo, human
From the text: as §1, §2, §3
Patients' affect was measured using Lawton Observed Affect Scale - Past (Lawton et al., J. Gerontol. [B], 51B: P3-14 (1996)). This scale consists of six items, three measuring positive affect (pleasure, interest and contentment) and three measuring negative affect (anger, anxiety/fear and depression/sadness) on a 5 point scale (from 1=never to 5=more than 3 time a day). The negative and positive affect scores were calculated by adding scores of the appropriate items.
as §4

[8] = repeated measures ANOVA, df=1,143
[9] = repeated measures ANOVA, df=5,143, dronabinol/placebo crossover
[10] = 12 patients, 2.5 mg capsule every morning and noon, six weeks
[11] = seventy weeks observed, 2.5 mg capsule every morning and noon
[12] = decrease during the 12 weeks study period (both phases), df=5,143
[13] = dronabinol first vs placebo first, df=5,143
[14] = repeated measures ANOVA, df=5,143

CCCCCc1cc(O)c2c(c1)OC(C)(C)[C@@H]1CCC(C)=C[C@@H]21 (relative stereo) [dronabinol, (6aR-trans)-6a,7,8,10a-tetrahydro-6,6,9-trimethyl-3-pentyl-6H-dibenzo[b,d]pyran-1-ol]
Mood / sense of well-being [1]: elevated mood or sense of well-being | PRN psychoactive medication doses, average [2]: 7.2 doses/6 weeks | Initial half-life [3]: four | Terminal half-life [3]: 25 to 36 h | Disturbed behavior (CMAI score), change ([4]; during dronabinol treatment, 2.5 mg morning and noon, six weeks): Disturbed behavior decreased during dronabinol treatment | Disturbed behavior (CMAI), persistence of decrease ([4]; placebo period following treatment with dronabinol): this decrease in disturbed behavior persisted during the placebo period following treatment with dronabinol; also recorded: carried over to the following placebo period | CMAI score, F(order×treatment) [4, 8]: 2.78 | CMAI score, p for F(order×treatment) [4, 8]: 0.12 | CMAI score as percentage of the baseline, F(order×time) [4, 9]: 2.35 | CMAI score as percentage of the baseline, p for order×time interaction [4, 9]: 0.05 | Disturbed behavior, difference in the second treatment period ([4]; second treatment period of crossover): no difference in the disturbed behavior in the second treatment period | Agitation (CMAI and Observed Affect Scale), change ([4]; two scales: CMAI and Observed Affect Scale): Decreased agitation | Low levels of dronabinol metabolites detected in urine and feces, time ([5]; after initiation of a supervised abstinence, Dackis et al. 1982): 2-5 weeks | Presence of tetrahydrocannabinol metabolites in the urine, time after ingestion ([5]; urine, after ingestion of marijuana, Ellis et al. 1985): ≤ 77 days | Anxiety/nervousness, percentage of total patients [6, 10]: 92% | Ataxia, percentage of total patients [6, 10]: 16% | Depression, percentage of total patients [6, 10]: 16% | Diarrhea, percentage of total patients [6, 10]: 16% | Emotional lability, percentage of total patients [6, 10]: 92% | Euphoria, percentage of total patients [6, 10]: 58% | Flushing, percentage of total patients [6, 10]: 8% | Hallucination, percentage of total patients [6, 10]: 33% | Headache, percentage of total patients [6, 10]: 8% | Increased confusion, percentage of total patients [6, 10]: 8% | Muscle pain, percentage of total patients [6, 10]: 16% | Paranoid reaction, percentage of total patients [6, 10]: 33% | Somnolence, percentage of total patients [6, 10]: 67% | Sweating, percentage of total patients [6, 10]: 8% | Tiredness, percentage of total patients [6, 10]: 75% | Incidence of seizure ([6]; dronabinol treated patient): one | Euphoria as an adverse reaction, frequency vs placebo ([6]; dronabinol treatment vs placebo periods): reported more frequently and in more patients during the dronabinol treatment than during placebo periods | Somnolence, frequency vs placebo ([6]; patients treated with dronabinol vs patients on placebo): twice as common | Anxiety/nervousness, percentage of weeks [6, 11]: 53% | Ataxia, percentage of weeks [6, 11]: 8% | Depression, percentage of weeks [6, 11]: 6% | Diarrhea, percentage of weeks [6, 11]: 4% | Emotional lability, percentage of weeks [6, 11]: 46% | Euphoria, percentage of weeks [6, 11]: 44% | Flushing, percentage of weeks [6, 11]: 3% | Hallucination, percentage of weeks [6, 11]: 16% | Headache, percentage of weeks [6, 11]: 1% | Increased confusion, percentage of weeks [6, 11]: 3% | Muscle pain, percentage of weeks [6, 11]: 10% | Paranoid reaction, percentage of weeks [6, 11]: 23% | Somnolence, percentage of weeks [6, 11]: 41% | Sweating, percentage of weeks [6, 11]: 3% | Tiredness, percentage of weeks [6, 11]: 36% | Negative affect score, F(time) [7, 12]: 2.46 | Negative affect score, p for F(time) [7, 12]: 0.045 | Positive affect score, change ([7]; dronabinol and placebo treatments, six weeks each): positive affect remained similar during both treatments; also recorded: did not change the Positive Affect | Negative affect score, decrease by order of treatment ([7]; dronabinol first vs placebo first): the decrease was greater for those who received dronabinol first, compared to those who received placebo first | Negative affect score, F(order×time) [7, 13]: 5.45 | Negative affect score, p for F(order×time) [7, 13]: < 0.0005 | Negative affect score, change vs placebo periods ([7]; on dronabinol vs placebo periods): decreased more while patients were on dronabinol then during the placebo periods | Negative affect score, F(time×treatment) [7, 14]: 3.98 | Negative affect score, p for F(time×treatment) [7, 14]: 0.004
